Measurements from patent US8614201B2 (Janssen Pharmaceutica NV, priority 2009, dated 2013).

Target: Human TRPA1 (Homo sapiens, UniProt O75762)
Test: Assay 1: In vitro cellular testing of TRPA1 modulation (CHO-TREx, Fluo-3 calcium fluorescence, AITC agonist)
Assay type: cell-based
Set-up: expressed in transfected cells; host or cells: CHO-TREx cells (Invitrogen), vector pcDNA4/TO
Conditions: CHO-TREx cells expressing human TRPA1; Fluo-3 fluorescence (FLIPR/Tetra); agonist 15 μM allyl isothiocyanate (AITC); 30 minute antagonist incubation
Summary of the method: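 Tetracycline-induced CHO-TREx cells stably expressing human TRPA1, loaded with 4 μM Fluo-3 AM, preincubated 30 min with compound (serial dilution typically from 10 μM, three-fold steps) in HEPES saline pH 7.4. Fluorescence change over 3 min after 15 μM AITC; IC50 from Hill fit versus no-antagonist and 10 μM ruthenium red controls.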

Human TRPA1, sequence (O75762 whole entry): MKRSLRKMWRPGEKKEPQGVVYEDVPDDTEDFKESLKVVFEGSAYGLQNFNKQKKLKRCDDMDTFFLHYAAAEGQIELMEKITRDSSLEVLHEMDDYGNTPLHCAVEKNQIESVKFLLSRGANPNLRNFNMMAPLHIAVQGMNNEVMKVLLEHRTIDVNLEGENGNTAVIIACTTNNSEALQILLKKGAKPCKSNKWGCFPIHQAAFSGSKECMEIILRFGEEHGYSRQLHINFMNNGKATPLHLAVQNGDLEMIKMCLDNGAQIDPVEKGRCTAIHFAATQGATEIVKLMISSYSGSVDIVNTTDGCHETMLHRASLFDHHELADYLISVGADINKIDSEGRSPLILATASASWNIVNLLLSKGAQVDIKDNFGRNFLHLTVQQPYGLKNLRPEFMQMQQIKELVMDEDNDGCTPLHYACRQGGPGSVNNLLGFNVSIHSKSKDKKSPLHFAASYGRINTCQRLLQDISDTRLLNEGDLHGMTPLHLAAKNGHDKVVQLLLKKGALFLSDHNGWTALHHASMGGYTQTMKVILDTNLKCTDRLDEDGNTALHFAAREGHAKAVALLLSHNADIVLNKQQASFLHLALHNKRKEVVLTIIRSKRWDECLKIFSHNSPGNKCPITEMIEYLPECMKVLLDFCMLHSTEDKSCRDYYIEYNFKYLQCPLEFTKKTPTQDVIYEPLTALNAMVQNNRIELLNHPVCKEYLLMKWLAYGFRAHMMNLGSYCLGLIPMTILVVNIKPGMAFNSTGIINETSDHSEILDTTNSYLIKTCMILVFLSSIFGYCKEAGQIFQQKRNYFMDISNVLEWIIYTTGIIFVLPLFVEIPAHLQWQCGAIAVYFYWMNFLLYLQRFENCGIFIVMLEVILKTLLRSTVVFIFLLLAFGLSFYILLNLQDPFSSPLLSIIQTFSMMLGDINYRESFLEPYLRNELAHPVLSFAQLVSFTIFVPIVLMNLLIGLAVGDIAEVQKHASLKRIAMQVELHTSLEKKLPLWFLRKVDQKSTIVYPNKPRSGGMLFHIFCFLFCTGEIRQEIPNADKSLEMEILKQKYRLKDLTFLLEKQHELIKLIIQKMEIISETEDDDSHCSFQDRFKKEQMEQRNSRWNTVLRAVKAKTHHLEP

Row | Compound | IC50 [µM]
1 | O=C(NCc1ccnc(-c2ccc(C(F)(F)F)cc2)c1)[C@@H]1CC(F)(F)CN1S(=O)(=O)c1ccc(Cl)s1 [Example 126, 1-(5-Chlorothiophene-2-sulfonyl)-4,4-difluoropyrrolidine-2S-carboxylic acid [2-(4-trifluoromethylphenyl)-pyridin-4-ylmethyl]-amide] | 0.046
2 | O=C(NCc1ccnc(-c2ccc(OC(F)(F)F)cc2)c1)[C@@H]1CCCN1S(=O)(=O)c1ccc(F)cc1 [Example 129, 1-(4-Fluoro-benzenesulfonyl)-pyrrolidine-2S-carboxylic acid [2-(4-trifluoromethoxy-phenyl)-pyridin-4-ylmethyl]-amide] | 0.019
3 | O=C(NCc1cccc(-c2ccc(C(F)(F)F)cc2)c1)[C@@H]1C[C@H](O)CN1S(=O)(=O)c1ccc(F)cc1 [Example 121, (2S,4S)-1-(4-Fluoro-benzenesulfonyl)-4-hydroxy-pyrrolidine-2-carboxylic acid (4′-trifluoromethyl-biphenyl-3-ylmethyl)-amide] | 1.53
4 | O=C(NCc1cc(-c2ccc(OC(F)(F)F)cc2)ccn1)[C@@H]1C=CCN1S(=O)(=O)c1ccc(F)cc1 [Example 145, 1-(4-Fluoro-benzenesulfonyl)-2,5-dihydro-1H-pyrrole-2S-carboxylic acid [4-(4-trifluoromethoxy-phenyl)-pyridin-2-ylmethyl]-amide] | 0.028
5 | O=C(NCc1cccc(-c2ccc(Cl)cc2)c1)[C@@H]1CCCN1S(=O)(=O)c1ccc(F)cc1 [Example 171, 1-(4-Fluorobenzenesulfonyl)-pyrrolidine-2S-carboxylic acid (4′-chlorobiphenyl-3-ylmethyl)-amide] | 0.019
6 | C[C@@H](NC(=O)[C@@H]1CCCN1S(=O)(=O)c1ccc(Cl)s1)c1cccc(-c2ccc(C(F)(F)F)cc2)c1 [Example 116, (1R,2S)-1-(5-Chloro-thiophene-2-sulfonyl)-pyrrolidine-2-carboxylic acid [1-(4′-trifluoromethylbiphenyl-3-yl)ethyl]-amide] | 0.386
7 | O=C(NCc1cc(-c2ccc(C(F)(F)F)cc2)ccn1)[C@@H]1CCCN1S(=O)(=O)c1ccc(F)cc1 [Example 135, 1-(4-Fluoro-benzenesulfonyl)-pyrrolidine-2S-carboxylic acid [4-(4-trifluoromethyl-phenyl)-pyridin-2-ylmethyl]-amide] | 0.022
8 | C[C@@H]1CCCN1c1nc(CNC(=O)[C@@H]2CCCN2S(=O)(=O)c2ccc(F)cc2)cc(-c2ccc(C(F)(F)F)cc2)n1 [Example 27, 1-(4-Fluoro-benzenesulfonyl)-pyrrolidine-2S-carboxylic acid [2-(2R-methyl-pyrrolidin-1-yl)-6-(4-trifluoromethyl-phenyl)-pyrimidin-4-ylmethyl]-amide] | 0.016
9 | CCC(CC)N1CCN(c2nc(CNC(=O)[C@@H]3CCCN3S(=O)(=O)c3ccc(F)cc3)cc(-c3ccc(C(F)(F)F)cc3)n2)CC1 [Example 13, 1-(4-Fluoro-benzenesulfonyl)-pyrrolidine-2S-carboxylic acid [2-[4-(1-ethyl-propyl)-piperazin-1-yl]-6-(4-trifluoromethyl-phenyl)-pyrimidin-4-ylmethyl]-amide] | 0.09
10 | O=C(NCc1cc(-c2ccc(C(F)(F)F)cc2)nc(OCCN2CCCC2)n1)[C@@H]1CCCN1S(=O)(=O)c1ccc(Cl)s1 [Example 62, 1-(5-Chloro-thiophene-2-sulfonyl)-pyrrolidine-2S-carboxylic acid [2-(2-pyrrolidin-1-yl-ethoxy)-6-(4-trifluoromethyl-phenyl)-pyrimidin-4-ylmethyl]-amide] | 3.21
11 | O=C(NCc1cc(-c2ccc(C(F)(F)F)cc2)ncn1)[C@@H]1CCCN1S(=O)(=O)c1cc(Cl)c(Cl)s1 [Example 165, 1-(4,5-Dichlorothiophene-2-sulfonyl)-pyrrolidine-2S-carboxylic acid [6-(4-trifluoromethylphenyl)-pyrimidin-4-ylmethyl]-amide] | 0.011
12 | CN(C)c1ccc(-c2cccc(CNC(=O)[C@@H]3CCCN3S(=O)(=O)c3ccc(F)cc3)c2)cn1 [Example 104, 1-(4-Fluorobenzenesulfonyl)-pyrrolidine-2S-carboxylic acid 3-(6-dimethylaminopyridin-3-yl)-benzylamide] | 0.46
13 | O=C(NCc1cc(-c2ccc(OC(F)(F)F)cc2)ccn1)[C@@H]1CC(F)(F)CN1S(=O)(=O)c1ccc(Cl)s1 [Example 142, 1-(5-Chloro-thiophene-2-sulfonyl)-4,4-difluoro-pyrrolidine-2S-carboxylic acid [4-(4-trifluoromethoxy-phenyl)-pyridin-2-ylmethyl]-amide] | 0.078
14 | CC(C)(C)OC(=O)N[C@H]1CCN(c2nc(CNC(=O)[C@@H]3CCCN3S(=O)(=O)c3ccc(Cl)s3)cc(-c3ccc(C(F)(F)F)cc3)n2)C1 [Example 34, {1-[4-({[1-(5-Chloro-thiophene-2-sulfonyl)-pyrrolidine-2S-carbonyl]-amino}-methyl)-6-(4-trifluoromethyl-phenyl)-pyrimidin-2-yl]-pyrrolidin-3S-yl}-carbamic acid tert-butyl ester] | 0.032
15 | O=C(NCc1cccc(-c2ccc(C(F)(F)F)cc2)c1)[C@@H]1CC(F)(F)CN1S(=O)(=O)c1ccc(Cl)s1 [Example 120, (2S)-1-(5-Chloro-thiophene-2-sulfonyl)-4,4-difluoro-pyrrolidine-2-carboxylic acid (4′-trifluoromethyl-biphenyl-3-ylmethyl)-amide] | 0.03
16 | O=C(NCc1cccc(-c2ccc([N+](=O)[O-])cc2)c1)[C@@H]1CCCN1S(=O)(=O)c1ccc(F)cc1 [Example 76, 1-(4-Fluorobenzenesulfonyl)-pyrrolidine-2S-carboxylic acid (4′-nitrobiphenyl-3-ylmethyl)-amide] | 0.024
17 | CC(C)(O)CNc1nc(CNC(=O)[C@@H]2CCCN2S(=O)(=O)c2ccc(Cl)s2)cc(-c2ccc(C(F)(F)F)cc2)n1 [Example 46, 1-(5-Chloro-thiophene-2-sulfonyl)-pyrrolidine-2S-carboxylic acid [2-(2-hydroxy-2-methyl-propylamino)-6-(4-trifluoromethyl-phenyl)-pyrimidin-4-ylmethyl]-amide] | 0.747

The next lines start with the values.

Row | IC50 [µM] | Compound
18 | 0.269 | CC(Nc1cc(CNC(=O)[C@@H]2CCCN2S(=O)(=O)c2ccc(F)cc2)cc(-c2ccc(C(F)(F)F)cc2)n1)c1ccccc1 (stereo partly drawn) [Example 413, 1-[(4-Fluorophenyl)sulfonyl]-N-({2-[(1-phenylethyl)amino]-6-[4-(trifluoromethyl)phenyl]pyridin-4-yl}methyl)-L-prolinamide]
19 | 1.94 | O=C(NCc1cc(-c2ccc(C(F)(F)F)cc2)nc(N2CCN(Cc3ccccn3)CC2)c1)[C@@H]1CC(F)(F)CN1S(=O)(=O)c1ccc(Cl)s1 [Example 375, 1-[(5-Chlorothiophen-2-yl)sulfonyl]-4,4-difluoro-N-({2-[4-(pyridin-2-ylmethyl)piperazin-1-yl]-6-[4-(trifluoromethyl)phenyl]pyridin-4-yl}methyl)-L-prolinamide]
20 | 0.115 | CC(C)CN1CCN(c2cc(CNC(=O)[C@@H]3CCCN3S(=O)(=O)c3ccc(F)cc3)cc(-c3ccc(C(F)(F)F)cc3)n2)CC1 [Example 370, 1-[(4-Fluorophenyl)sulfonyl]-N-({2-[4-(2-methylpropyl)piperazin-1-yl]-6-[4-(trifluoromethyl)phenyl]pyridin-4-yl}methyl)-L-prolinamide]
21 | 2.95 | CC1CCCN1c1cc(CNC(=O)[C@@H]2CC(F)(F)CN2S(=O)(=O)c2ccc(Cl)s2)cc(-c2ccc(C(F)(F)F)cc2)n1 (stereo partly drawn) [Example 397, 1-[(5-Chlorothiophen-2-yl)sulfonyl]-4,4-difluoro-N-({2-(2-methylpyrrolidin-1-yl)-6-[4-(trifluoromethyl)phenyl]pyridin-4-yl}methyl)-L-prolinamide]
22 | 7.09 | O=C(NCc1cc(NCc2ccccc2)nc(-c2ccc(C(F)(F)F)cc2)c1)[C@@H]1CC(F)(F)CN1S(=O)(=O)c1ccc(Cl)s1 [Example 352, N-({2-(Benzylamino)-6-[4-(trifluoromethyl)phenyl]pyridin-4-yl}methyl)-1-[(5-chlorothiophen-2-yl)sulfonyl]-4,4-difluoro-L-prolinamide]
23 | 0.682 | O=C(NCc1cc(-c2ccc(C(F)(F)F)cc2)nc(N2CCN(Cc3cccnc3)CC2)c1)[C@@H]1CCCN1S(=O)(=O)c1ccc(F)cc1 [Example 328, 1-[(4-Fluorophenyl)sulfonyl]-N-({2-[4-(pyridin-3-ylmethyl)piperazin-1-yl]-6-[4-(trifluoromethyl)phenyl]pyridin-4-yl}methyl)-L-prolinamide]
24 | 0.418 | O=C(NCc1cc(-c2ccc(C(F)(F)F)cc2)nc(N2CCN(Cc3ccccc3)CC2)c1)[C@@H]1C=CCN1S(=O)(=O)c1ccc(Cl)s1 [Example 368, (2S)—N-({2-(4-Benzylpiperazin-1-yl)-6-[4-(trifluoromethyl)phenyl]pyridin-4-yl}methyl)-1-[(5-chlorothiophen-2-yl)sulfonyl]-2,5-dihydro-1H-pyrrole-2-carboxamide]
25 | 0.229 | O=C(NCc1cc(-c2ccc(C(F)(F)F)cc2)ncn1)[C@@H]1CC(F)(F)CN1S(=O)(=O)c1ccc(F)cc1 [Example 179, (2S)-4,4-Difluoro-1-(4-fluoro-benzenesulfonyl)-pyrrolidine-2-carboxylic acid [6-(4-trifluoromethyl-phenyl)-pyrimidin-4-ylmethyl]-amide]
26 | 1.43 | CC(Nc1cc(CNC(=O)[C@@H]2CC(F)(F)CN2S(=O)(=O)c2ccc(Cl)s2)cc(-c2ccc(C(F)(F)F)cc2)n1)c1ccccc1 (stereo partly drawn) [Example 411, 1-[(5-Chlorothiophen-2-yl)sulfonyl]-4,4-difluoro-N-({2-[(1-phenylethyl)amino]-6-[4-(trifluoromethyl)phenyl]pyridin-4-yl}methyl)-L-prolinamide]
